Data from patent publication US9926281B2 (priority 2014, dated 2018).

What was measured:
human ADAMTS-5 = human ADAMTS-5 (Homo sapiens (Human), UniProt Q9UNA0); conditions: read-out: hADAMTS-5 potency IC50
Description: Finally, the fluorescence is read on the Envision (Perkin Elmer) after an incubation of 90 min at 37° C.

human TACE = human TACE (Homo sapiens (Human), UniProt P78536); conditions: read-out: TACE potency IC50
human TACE, sequence (P78536 whole entry, looked up, change not shown): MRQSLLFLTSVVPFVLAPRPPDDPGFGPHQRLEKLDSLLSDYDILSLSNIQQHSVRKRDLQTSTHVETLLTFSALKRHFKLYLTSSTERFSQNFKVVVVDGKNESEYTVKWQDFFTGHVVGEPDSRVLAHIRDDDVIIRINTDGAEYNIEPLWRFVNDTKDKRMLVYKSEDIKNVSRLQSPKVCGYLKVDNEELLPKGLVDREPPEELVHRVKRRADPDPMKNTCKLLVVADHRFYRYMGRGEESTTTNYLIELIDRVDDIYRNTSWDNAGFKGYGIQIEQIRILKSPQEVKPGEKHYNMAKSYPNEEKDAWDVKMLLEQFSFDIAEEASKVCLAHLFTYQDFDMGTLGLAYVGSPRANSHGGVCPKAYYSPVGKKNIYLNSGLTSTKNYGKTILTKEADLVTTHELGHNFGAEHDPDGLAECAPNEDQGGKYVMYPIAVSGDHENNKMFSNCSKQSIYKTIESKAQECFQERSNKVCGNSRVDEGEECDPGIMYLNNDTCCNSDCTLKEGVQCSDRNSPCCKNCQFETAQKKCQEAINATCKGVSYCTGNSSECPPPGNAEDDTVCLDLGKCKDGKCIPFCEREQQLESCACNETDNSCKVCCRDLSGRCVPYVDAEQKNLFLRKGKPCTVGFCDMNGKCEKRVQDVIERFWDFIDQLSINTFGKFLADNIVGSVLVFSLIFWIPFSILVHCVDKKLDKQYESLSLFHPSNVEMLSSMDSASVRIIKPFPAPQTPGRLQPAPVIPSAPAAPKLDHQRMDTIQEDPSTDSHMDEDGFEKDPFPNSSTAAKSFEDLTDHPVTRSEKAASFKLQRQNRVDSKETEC

human ADAMTS-5, sequence (Q9UNA0 262-930): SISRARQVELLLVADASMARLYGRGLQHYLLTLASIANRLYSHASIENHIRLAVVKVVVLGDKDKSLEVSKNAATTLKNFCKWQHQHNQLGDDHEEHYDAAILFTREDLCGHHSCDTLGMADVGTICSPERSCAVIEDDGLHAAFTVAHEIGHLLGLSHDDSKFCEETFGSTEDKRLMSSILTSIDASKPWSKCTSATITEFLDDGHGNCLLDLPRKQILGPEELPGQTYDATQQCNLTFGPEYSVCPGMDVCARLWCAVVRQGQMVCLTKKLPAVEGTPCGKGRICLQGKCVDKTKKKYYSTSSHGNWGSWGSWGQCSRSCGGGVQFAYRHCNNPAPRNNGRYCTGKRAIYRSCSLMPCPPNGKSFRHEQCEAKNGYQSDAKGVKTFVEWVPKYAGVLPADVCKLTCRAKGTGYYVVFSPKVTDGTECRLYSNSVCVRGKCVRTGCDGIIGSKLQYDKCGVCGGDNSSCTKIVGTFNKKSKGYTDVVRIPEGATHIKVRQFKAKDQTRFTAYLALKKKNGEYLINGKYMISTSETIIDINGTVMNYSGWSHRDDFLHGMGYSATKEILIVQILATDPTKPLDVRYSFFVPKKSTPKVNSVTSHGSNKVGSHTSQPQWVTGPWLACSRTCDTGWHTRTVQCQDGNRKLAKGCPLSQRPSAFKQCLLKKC

SMILES	IC50 (human ADAMTS-5)	IC50 (human TACE)
Cc1noc(C)c1-c1cccc(N2CCN(C(=O)CCC3(C4CC4)NC(=O)NC3=O)C[C@@H]2C)c1 (stereo partly drawn) [compound 369, 5-cyclopropyl-5-[3-[(3S)-4-[3-(3,5-dimethylisoxazol-4-yl)phenyl]-3-methyl-piperazin-1-yl]-3-oxo-propyl]imidazolidine-2,4-dione]	1080 nM	> 20 µM
CC(C)n1cc(-c2cccc(N3CCN(C(=O)CCC4(C5CC5)NC(=O)NC4=O)C[C@@H]3C)c2)cn1 (stereo partly drawn) [compound 370, 5-cyclopropyl-5-[3-[(3S)-4-[3-(1-isopropylpyrazol-4-yl)phenyl]-3-methyl-piperazin-1-yl]-3-oxo-propyl]imidazolidine-2,4-dione]	532 nM	> 20 µM
C[C@H]1CN(C(=O)CCC2(C3CC3)NC(=O)NC2=O)CCN1c1cnnc(Cl)c1 (stereo partly drawn) [compound 373, 5-[3-[(3S)-4-(6-chloropyridazin-4-yl)-3-methyl-piperazin-1-yl]-3-oxo-propyl]-5-cyclopropyl-imidazolidine-2,4-dione]	1530 nM	> 20 µM
C[C@H]1CN(C(=O)CCC2(C3CC3)NC(=O)NC2=O)CCN1c1ccn(C)n1 (stereo partly drawn) [compound 374, 5-cyclopropyl-5-[3-[(3S)-3-methyl-4-(1-methylpyrazol-3-yl)piperazin-1-yl]-3-oxo-propyl]imidazolidine-2,4-dione]	3080 nM	> 20 µM
COC[C@]1(CC(C)C(=O)N2CCN(c3cc(F)cc(-c4cn[nH]c4)c3)[C@@H](C)C2)NC(=O)NC1=O (stereo partly drawn) [compound 376, 5-[3-[(3S)-4-[3-fluoro-5-(1H-pyrazol-4-yl)phenyl]-3-methyl-piperazin-1-yl]-2-methyl-3-oxo-propyl]-5-(methoxymethyl)imidazolidine-2,4-dione]	52 nM	2.43 µM
C[C@H]1CN(C(=O)CCC2(C3CC3)NC(=O)NC2=O)CCN1c1cccc(-c2cncnc2)c1 (stereo partly drawn) [compound 377, 5-cyclopropyl-5-[3-[(3S)-3-methyl-4-(3-pyrimidin-5-ylphenyl)piperazin-1-yl]-3-oxo-propyl]imidazolidine-2,4-dione]	700 nM	> 20 µM
C[C@@H](C[C@@]1(C2CC2)NC(=O)NC1=O)C(=O)N1CCN(c2ccc(F)c(-c3cn[nH]c3)c2)[C@@H](C)C1 [compound 378, 5-cyclopropyl-5-[3-[(3S)-4-[4-fluoro-3-(1H-pyrazol-4-yl)phenyl]-3-methyl-piperazin-1-yl]-2-methyl-3-oxo-propyl]imidazolidine-2,4-dione]	22 nM	> 4 µM
COC[C@]1(C[C@H](C)C(=O)N2CCN(c3cccc(-c4cn[nH]c4)c3)[C@@H](C)C2)NC(=O)NC1=O [compound 380, 5-(methoxymethyl)-5-[2-methyl-3-[(3S)-3-methyl-4-[3-(1H-pyrazol-4-yl)phenyl]piperazin-1-yl]-3-oxo-propyl]imidazolidine-2,4-dione]	47 nM	> 4 µM
C[C@H]1CN(C(=O)CCC2(C3CC3)NC(=O)NC2=O)CCN1c1cccc(-c2ccc(Cl)nn2)c1 (stereo partly drawn) [compound 381, 5-[3-[(3S)-4-[3-(6-chloropyridazin-3-yl)phenyl]-3-methyl-piperazin-1-yl]-3-oxo-propyl]-5-cyclopropyl-imidazolidine-2,4-dione]	1970 nM	> 20 µM
C[C@H]1CN(C(=O)CCC2(c3ncccn3)NC(=O)NC2=O)CCN1c1cc(F)cc(F)c1 (stereo partly drawn) [compound 382, 5-[3-[(3S)-4-(3,5-difluorophenyl)-3-methyl-piperazin-1-yl]-3-oxo-propyl]-5-pyrimidin-2-yl-imidazolidine-2,4-dione]	39 nM	> 20 µM
Cc1ccc(C2(CCC(=O)N3CCN(c4cc(F)cc(Cl)c4)[C@@H](C)C3)NC(=O)NC2=O)cn1 (stereo partly drawn) [compound 383, 5-[3-[(3S)-4-(3-chloro-5-fluoro-phenyl)-3-methyl-piperazin-1-yl]-3-oxo-propyl]-5-(6-methyl-3-pyridyl)imidazolidine-2,4-dione]	43 nM	> 4 µM
